Each structure is given as a SMILES string.

This test deals with HBV. The test can be described thus: HBV-DNA antiviral assay using HepG2.117 cells (intracellular HBV DNA by qPCR). Type of test: cell-based, genotype D HBV. Particulars: Hepatitis B virus, 72 h, HBV DNA inhibition, 3 days incubation, 2% DMSO. The method, boiled down: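 Endpoints are intracellular HBV DNA by qPCR (interpolated from a gBlock standard curve) and ATP-based viability in duplicate plates. Doxycycline-free HepG2.117 Tet-off cells received compounds (9 concentrations, 4-fold steps, 2% DMSO) for 3 days. Inhibition normalised to DMSO wells; EC50/EC90/CC50 by curve fitting.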
(In qPCR the cycle at which signal appears reflects the starting amount.)
A word on the EC50: it is the midpoint of the concentration-response curve. Lower therefore signals an effect from little substance. `C[C@@H]1Cc2c(n3ncc(Cc4ccccc4)c3n(-c3ccc(-n4nnnc4C(F)(F)F)cc3)c2=O)CN1C(=O)c1ccc(Br)c(C(F)(F)F)c1` (stereo in doubt) [Compound 92a, rac-(11R)-5-benzyl-12-[4-bromo-3-(trifluoromethyl)benzoyl]-11-methyl-7-[4-[5-(trifluoromethyl)tetrazol-1-yl]phenyl]-2,3,7,12-tetrazatricyclo[7.4.0.0^2,6]trideca-1(9),3,5-trien-8-one] returned an EC50 below 50 nM.
As for `C[C@H]1Cc2c(n3ncc(Cc4ccccc4)c3n(-c3ccc(-n4nnnc4C(F)(F)F)cc3)c2=O)CN1C(=O)c1ccc(Br)c(C(F)(F)F)c1` (stereo in doubt) [Compound 92b, rac-(11S)-5-benzyl-12-[4-bromo-3-(trifluoromethyl)benzoyl]-11-methyl-7-[4-[5-(trifluoromethyl)tetrazol-1-yl]phenyl]-2,3,7,12-tetrazatricyclo[7.4.0.0^2,6]trideca-1(9),3,5-trien-8-one], the figure is above 5000 nM; as for `C[C@@H]1Cc2c(n3ncc(CC4CC4)c3n(-c3ccc(-c4nc(=O)on4C)cc3)c2=O)CN1C(=O)c1ccc(Br)c(C(F)(F)F)c1` (stereo in doubt) [Compound 93a, 2-methyl-3-[4-[rac-(11R)-12-[4-bromo-3-(trifluoromethyl)benzoyl]-5-(cyclopropylmethyl)-11-methyl-8-oxo-2,3,7,12-tetrazatricyclo[7.4.0.0^2,6]trideca-1(9),3,5-trien-7-yl]phenyl]-1,2,4-oxadiazol-5-one], below 50 nM; as for `C[C@H]1Cc2c(n3ncc(CC4CC4)c3n(-c3ccc(-c4nc(=O)on4C)cc3)c2=O)CN1C(=O)c1ccc(Br)c(C(F)(F)F)c1` (stereo in doubt) [Compound 93b, 2-methyl-3-[4-[rac-(11S)-12-[4-bromo-3-(trifluoromethyl)benzoyl]-5-(cyclopropylmethyl)-11-methyl-8-oxo-2,3,7,12-tetrazatricyclo[7.4.0.0^2,6]trideca-1(9),3,5-trien-7-yl]phenyl]-1,2,4-oxadiazol-5-one], below 50 nM.
As for `CC(C)Cc1cnn2c3c(c(=O)n(-c4ccc(-c5nc(=O)on5C)cc4)c12)C[C@@H](C)N(C(=O)c1ccc(Br)c(C(F)(F)F)c1)C3` (stereo in doubt) [Compound 94a, 2-methyl-3-[4-[rac-(11R)-12-[4-bromo-3-(trifluoromethyl)benzoyl]-5-isobutyl-11-methyl-8-oxo-2,3,7,12-tetrazatricyclo[7.4.0.0^2,6]trideca-1(9),3,5-trien-7-yl]phenyl]-1,2,4-oxadiazol-5-one], the figure is below 50 nM; as for `CC(C)Cc1cnn2c3c(c(=O)n(-c4ccc(-c5nc(=O)on5C)cc4)c12)C[C@H](C)N(C(=O)c1ccc(Br)c(C(F)(F)F)c1)C3` (stereo in doubt) [Compound 94b, 2-methyl-3-[4-[rac-(11S)-12-[4-bromo-3-(trifluoromethyl)benzoyl]-5-isobutyl-11-methyl-8-oxo-2,3,7,12-tetrazatricyclo[7.4.0.0^2,6]trideca-1(9),3,5-trien-7-yl]phenyl]-1,2,4-oxadiazol-5-one], 50 to 500 nM.
Regarding `CC(C)Cc1cnn2c3c(c(=O)n(-c4ccc5c(c4)nnn5C)c12)C[C@@H](C)N(C(=O)c1ccc(Br)c(C(F)(F)F)c1)C3` (stereo in doubt) [Compound 95a, rac-(11R)-12-[4-bromo-3-(trifluoromethyl)benzoyl]-5-isobutyl-11-methyl-7-(1-methylbenzotriazol-5-yl)-2,3,7,12-tetrazatricyclo[7.4.0.0^2,6]trideca-1(9),3,5-trien-8-one], the EC50 is below 50 nM.
As for `CC(C)Cc1cnn2c3c(c(=O)n(-c4ccc5c(c4)nnn5C)c12)C[C@H](C)N(C(=O)c1ccc(Br)c(C(F)(F)F)c1)C3` (stereo in doubt) [Compound 95b, rac-(11S)-12-[4-bromo-3-(trifluoromethyl)benzoyl]-5-isobutyl-11-methyl-7-(1-methylbenzotriazol-5-yl)-2,3,7,12-tetrazatricyclo[7.4.0.0^2,6]trideca-1(9),3,5-trien-8-one], the figure is 50 to 500 nM.
The compound `Cc1cnn(-c2ccc(-n3c(=O)c4c(n5ncc(CC(C)C)c35)CN(C(=O)c3ccc(Br)c(C(F)(F)F)c3)[C@H](C)C4)cc2)c1` (stereo in doubt) [Compound 98a, rac-(11R)-12-[4-bromo-3-(trifluoromethyl)benzoyl]-5-isobutyl-11-methyl-7-[4-(4-methylpyrazol-1-yl)phenyl]-2,3,7,12-tetrazatricyclo[7.4.0.0^2,6]trideca-1(9),3,5-trien-8-one] yielded an EC50 below 50 nM.
`Cc1cnn(-c2ccc(-n3c(=O)c4c(n5ncc(CC(C)C)c35)CN(C(=O)c3ccc(Br)c(C(F)(F)F)c3)[C@@H](C)C4)cc2)c1` (stereo in doubt) [Compound 98b, rac-(11S)-12-[4-bromo-3-(trifluoromethyl)benzoyl]-5-isobutyl-11-methyl-7-[4-(4-methylpyrazol-1-yl)phenyl]-2,3,7,12-tetrazatricyclo[7.4.0.0^2,6]trideca-1(9),3,5-trien-8-one] yielded an EC50 of 50 to 500 nM.
Regarding `Cc1cnn(-c2ccc(-n3c(=O)c4c(n5ncc(CC(C)C)c35)CN(C(=O)c3ccc(Br)c(C(F)(F)F)c3)[C@H](C)C4)cc2)n1` (stereo in doubt) [Compound 99a, rac-(11R)-12-[4-bromo-3-(trifluoromethyl)benzoyl]-5-isobutyl-11-methyl-7-[4-(4-methyltriazol-2-yl)phenyl]-2,3,7,12-tetrazatricyclo[7.4.0.0^2,6]trideca-1(9),3,5-trien-8-one], the EC50 was below 50 nM.
The figure for `Cc1cnn(-c2ccc(-n3c(=O)c4c(n5ncc(CC(C)C)c35)CN(C(=O)c3ccc(Br)c(C(F)(F)F)c3)[C@@H](C)C4)cc2)n1` (stereo in doubt) [Compound 99b, rac-(11S)-12-[4-bromo-3-(trifluoromethyl)benzoyl]-5-isobutyl-11-methyl-7-[4-(4-methyltriazol-2-yl)phenyl]-2,3,7,12-tetrazatricyclo[7.4.0.0^2,6]trideca-1(9),3,5-trien-8-one] is 500 to 5000 nM.
The figure for `Cc1ccn(-c2ccc(-n3c(=O)c4c(n5ncc(CC(C)C)c35)CN(C(=O)c3ccc(Br)c(C(F)(F)F)c3)[C@H](C)C4)cc2)n1` (stereo in doubt) [Compound 100a, rac-(11R)-12-[4-bromo-3-(trifluoromethyl)benzoyl]-5-isobutyl-11-methyl-7-[4-(3-methylpyrazol-1-yl)phenyl]-2,3,7,12-tetrazatricyclo[7.4.0.0^2,6]trideca-1(9),3,5-trien-8-one] is below 50 nM; for `Cc1ccn(-c2ccc(-n3c(=O)c4c(n5ncc(CC(C)C)c35)CN(C(=O)c3ccc(Br)c(C(F)(F)F)c3)[C@@H](C)C4)cc2)n1` (stereo in doubt) [Compound 100b, rac-(11S)-12-[4-bromo-3-(trifluoromethyl)benzoyl]-5-isobutyl-11-methyl-7-[4-(3-methylpyrazol-1-yl)phenyl]-2,3,7,12-tetrazatricyclo[7.4.0.0^2,6]trideca-1(9),3,5-trien-8-one] it is 500 to 5000 nM.
Regarding `C[C@@H]1Cc2c(n3ncc(CC4CC4)c3n(-c3ccc(C(=O)N(C)CO)cc3)c2=O)CN1C(=O)c1ccc(Br)c(C(F)(F)F)c1` (stereo in doubt) [Compound 101, N-(hydroxymethyl)-N-methyl-4-[rac-(11R)-12-[4-bromo-3-(trifluoromethyl)benzoyl]-5-(cyclopropylmethyl)-11-methyl-8-oxo-2,3,7,12-tetrazatricyclo[7.4.0.0^2,6]trideca-1(9),3,5-trien-7-yl]benzamide], the concentration for a half-maximal effect (EC50) lay in the range of 50 to 500 nM.
On to `CC(C)Cc1cnn2c3c(c(=O)n(-c4ccc(-c5cnnn5C)cc4)c12)C[C@@H](C)N(C(=O)c1ccc(Br)c(C(F)(F)F)c1)C3` (stereo in doubt) [Compound 102a, rac-(11R)-12-[4-bromo-3-(trifluoromethyl)benzoyl]-5-isobutyl-11-methyl-7-[4-(3-methyltriazol-4-yl)phenyl]-2,3,7,12-tetrazatricyclo[7.4.0.0^2,6]trideca-1(9),3,5-trien-8-one], for which the EC50 was below 50 nM.
Turning to `CC(C)Cc1cnn2c3c(c(=O)n(-c4ccc(-c5cnnn5C)cc4)c12)C[C@H](C)N(C(=O)c1ccc(Br)c(C(F)(F)F)c1)C3` (stereo in doubt) [Compound 102b, rac-(11S)-12-[4-bromo-3-(trifluoromethyl)benzoyl]-5-isobutyl-11-methyl-7-[4-(3-methyltriazol-4-yl)phenyl]-2,3,7,12-tetrazatricyclo[7.4.0.0^2,6]trideca-1(9),3,5-trien-8-one], the EC50 was 50 to 500 nM.
As for `CNC(=O)c1ccc(-n2c(=O)c3c(n4ncc(Cc5ccccc5)c24)CN(C(=O)c2ccc(Br)c(C(F)(F)F)c2)[C@@H](C2CC2)C3)cc1` (stereo in doubt) [Compound 104a, N-methyl-4-[rac-(11R)-5-benzyl-12-[4-bromo-3-(trifluoromethyl)benzoyl]-11-cyclopropyl-8-oxo-2,3,7,12-tetrazatricyclo[7.4.0.0^2,6]trideca-1(9),3,5-trien-7-yl]benzamide], the figure is below 50 nM.
As for `CNC(=O)c1ccc(-n2c(=O)c3c(n4ncc(Cc5ccccc5)c24)CN(C(=O)c2ccc(Br)c(C(F)(F)F)c2)[C@H](C2CC2)C3)cc1` (stereo in doubt) [Compound 104b, N-methyl-4-[rac-(11S)-5-benzyl-12-[4-bromo-3-(trifluoromethyl)benzoyl]-11-cyclopropyl-8-oxo-2,3,7,12-tetrazatricyclo[7.4.0.0^2,6]trideca-1 (9),3,5-trien-7-yl]benzamide], the figure is below 50 nM; as for `C[C@@H]1Cc2c(n3ncc(Cc4ccccc4)c3n(-c3ccc(-c4cnnn4C)cc3)c2=O)CN1C(=O)c1ccc(Br)c(C(F)(F)F)c1` (stereo in doubt) [Compound 105a, rac-(11R)-5-benzyl-12-[4-bromo-3-(trifluoromethyl)benzoyl]-11-methyl-7-[4-(3-methyltriazol-4-yl)phenyl]-2,3,7,12-tetrazatricyclo[7.4.0.0^2,6]trideca-1(9),3,5-trien-8-one], below 50 nM.

The record behind these values is patent US11820773B2, “Tricyclic compounds” (ALIGOS THERAPEUTICS, INC., priority 2020, dated 2023).
